Data on 9 molecules can be found in patent US20260062420A1, “NOVEL DPP1 INHIBITORS AND USES THEREOF” (Insmed Incorporated, priority 2022, published 2026).

Some results are limits rather than exact numbers.

Assay [1] deals with active mouse DPP1 enzyme (Mus musculus (Mouse), UniProt P97821). Briefly: Mouse DPP1 Enzyme IC50 Assay. Format: biochemical. As to conditions: mouse DPP1 enzyme; Table 16; read-out: IC50, nM; Mouse. As to the method:
Test articles were applied to active mouse DPP1 enzyme (R&D Systems; Minneapolis, MN) in Assay Buffer (50 mM MES pH 5.5, 50 mM NaCl, 5 mM DTT) in a total reaction volume of 125 μL. 25 μL of compound in Assay Buffer plus 5% DMSO was first added to 50 μL of active mouse DPP1 enzyme at a concentration of 62.5 pg/μL and allowed to pre-incubate for 10 minutes at 37° C. after which 50 μL of 1000 μM H-Gly-Arg-AMC substrate (Bachem; St. Torrance, CA) was added, giving final substrate concentration of 400 μM and a final DMSO concentration of 1%. Substrate cleavage was measured for 90 minutes at 37° C., with fluorescence at Excitation/Emission 350/450 nm measured every 5 minutes. DPP1 concentration was interpolated based on its activity relative to a standard curve of recombinant active mouse DPP1 enzyme. IC50 values for each compound were calculated via the XLFit (IDBS Version 5.3.1.3) Add-On to Microsoft Excel using the four parameter fit equation y=(A+((B−A)/(1+((C/x)^D)))), which appears as equation number 205 (4 Parameter Logistic Model or Sigmoidal Dose-Response Model) in XLFit. Default constraints were used for each Parameter. IC50 was defined as the compound concentration at which 50% of enzyme activity was inhibited when compared to the no-compound control.

Assay [2] deals with DPP1 in HL-60 cells (Homo sapiens (Human), UniProt P53634). Briefly: DPP1 Cell IC50 Assay (HL-60 cells, H-Gly-Phe-AFC substrate). The settings on record: Table 16, read-out: Cell Assay. Format: cell-based. The procedure:
HL-60 cells (ATCC; Manassas, VA) were maintained in RPMI-1640 supplemented with 20% heat-inactivated FBS and 1× Antibiotic Antimycotic (Cytiva; Marlborough, MA). Media was changed every three to four days and cells were not allowed to exceed 1×10^6 cells per mL. Prior to assay, cells were collected by centrifugation at 500 rcf for 3 minutes, resuspended in PBS and counted. Cells were diluted in PBS to a concentration of 5×10^5 live cells per mL and transferred to black 96-well plates for assay, 60 μL per well. Test articles were diluted in PBS plus 0.5% DMSO, and 20 μL was added to each assay well. Compound was allowed to pre-incubate with cells with gentle shaking at 100 rpm for 60 minutes at 37° C. in a cell culture incubator maintained at 5% CO2, after which 20 μL of 500 μM H-Gly-Phe-AFC substrate (MP Biomedicals; Solon, OH) was added to each well. Plates were returned to the incubator with shaking at 100 rpm for 30 minutes, after which fluorescence was measured at Excitation/Emission 400/505 nm. % Inhibition was calculated from RFU values compared to control cell wells that received only PBS plus 0.5% DMSO. IC50 values for each compound were calculated via the XLFit (IDBS Version 5.3.1.3) Add-On to Microsoft Excel using the four parameter fit equation y=(A+((B−A)/(1+((C/x)^D)))), which appears as equation number 205 (4 Parameter Logistic Model or Sigmoidal Dose-Response Model) in XLFit.

In assay [3] the target is Recombinant human DPP1 enzyme (Homo sapiens (Human), UniProt P53634). Briefly: Human DPP1 Enzyme IC50 Assay. Format: biochemical. The settings on record: human DPP1 enzyme; Table 16; read-out: IC50, nM; Human. As to the method: Recombinant human DPP1 enzyme (R&D Systems; Minneapolis, MN) was first proteolytically processed into its mature form using recombinant human cathepsin L (R&D Systems) in a buffer consisting of 20 mM citric acid pH 4.5, 150 mM NaCl, 1 mM EDTA and 10 mM DTT. Test articles were applied to activated human DPP1 enzyme in Assay Buffer (25 mM MES pH 6.0, 50 mM NaCl, 5 mM DTT) in a total reaction volume of 125 μL. 25 μL of compound in Assay Buffer plus 5% DMSO was first added to 50 μL of activated human DPP1 enzyme at a concentration of 1 ng/μL and allowed to pre-incubate for 10 minutes at 37° C. after which 50 μL of 1000 μM H-Gly-Arg-AMC substrate (Bachem; St. Torrance, CA) was added, giving final substrate concentration of 400 μM and a final DMSO concentration of 1%. Substrate cleavage was measured for 90 minutes at 37° C., with fluorescence at Excitation/Emission 350/450 nm measured every 5 minutes. DPP1 concentration was interpolated based on its activity relative to a standard curve of activated human recombinant DPP1 enzyme. IC50 values for each compound were calculated via the XLFit (IDBS Version 5.3.1.3) Add-On to Microsoft Excel using the four parameter fit equation y={A+[(B−A)]/[1+((C/x)^D)]}, which appears as equation number 205 (4 Parameter Logistic Model or Sigmoidal Dose-Response Model) in XLFit. Default constraints were used for each Parameter.
Sequence of Recombinant human DPP1 enzyme (P53634 25-134): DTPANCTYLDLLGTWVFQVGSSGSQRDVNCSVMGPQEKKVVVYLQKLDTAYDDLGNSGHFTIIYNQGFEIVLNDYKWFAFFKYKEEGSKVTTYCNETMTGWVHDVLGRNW
Sequence of Recombinant human DPP1 enzyme (P53634 231-394): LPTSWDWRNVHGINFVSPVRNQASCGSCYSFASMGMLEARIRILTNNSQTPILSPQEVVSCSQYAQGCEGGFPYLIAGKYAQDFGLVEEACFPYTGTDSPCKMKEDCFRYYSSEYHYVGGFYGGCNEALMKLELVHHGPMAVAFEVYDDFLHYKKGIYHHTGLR
Sequence of Recombinant human DPP1 enzyme (P53634 395-463): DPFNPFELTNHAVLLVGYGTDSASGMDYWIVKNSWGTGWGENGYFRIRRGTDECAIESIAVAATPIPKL

Sequence of DPP1 in HL-60 cells (P53634 25-134): as the sequence (P53634 25-134) above
Sequence of DPP1 in HL-60 cells (P53634 231-394): as the sequence (P53634 231-394) above
Sequence of DPP1 in HL-60 cells (P53634 395-463): as the sequence (P53634 395-463) above
Sequence of active mouse DPP1 enzyme (P97821 25-134): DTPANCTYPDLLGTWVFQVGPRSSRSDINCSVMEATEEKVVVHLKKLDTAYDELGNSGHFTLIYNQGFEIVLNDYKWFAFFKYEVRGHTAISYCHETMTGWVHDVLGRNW
Sequence of active mouse DPP1 enzyme (P97821 231-393): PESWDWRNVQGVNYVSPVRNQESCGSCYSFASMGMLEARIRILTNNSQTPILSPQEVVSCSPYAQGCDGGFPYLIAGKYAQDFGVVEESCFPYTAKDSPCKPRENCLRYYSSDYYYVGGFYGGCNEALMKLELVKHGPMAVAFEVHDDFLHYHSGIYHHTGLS
Sequence of active mouse DPP1 enzyme (P97821 394-462): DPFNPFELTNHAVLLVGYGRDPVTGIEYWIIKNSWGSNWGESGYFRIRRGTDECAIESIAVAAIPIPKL

Take `Cn1c(=O)oc2ccc(-c3ccc(C[C@@H](C#N)NC(=O)CC4(N)CCCCC4)cc3)cc21`: the figures for the IC50 in assay [1], in assay [2] and in assay [3] were 815 nM, 0.0401 µM and 1100 nM, respectively.

On to `Cn1c(=O)oc2ccc(-c3ccc(C[C@@H](C#N)NC(=O)[C@@H]4COCCN4)cc3)cc21`, for which the IC50 was determined as 306 nM in assay [1], 0.33 µM in assay [2] and 537 nM in assay [3].

`Cn1c(=O)oc2ccc(-c3ccc(C[C@@H](C#N)NC(=O)[C@@H]4CNCCCO4)cc3F)cc21`: the IC50 came to 218 nM in assay [1], 0.0101 µM in assay [2] and 186 nM in assay [3].

Regarding `Cn1c(=O)oc2ccc(-c3ccc(C[C@@H](C#N)NC(=O)[C@@H]4C[C@@H]5CCC[C@@H]5N4)cc3)cc21`, the values for the IC50 in assay [1], in assay [2] and in assay [3] were 8.2 nM, 0.0031 µM and 17.3 nM, respectively.

On to `Cn1c(=O)oc2ccc(-c3ccc(C[C@@H](C#N)NC(=O)C4CC5OCCC5N4)cc3)cc21` (stereo partly drawn), for which the IC50 in assay [1] turned out to be 438 nM; in assay [2], 0.878 µM; in assay [3], 784 nM.

As to `Cn1c(=O)oc2ccc(-c3ccc(C[C@@H](C#N)NC(=O)[C@H]4C[C@H]5OCC[C@H]5N4)cc3)cc21`, the IC50 was 226 nM in assay [1], above 1 µM in assay [2] and 497 nM in assay [3].

Take `Cn1c(=O)oc2ccc(-c3ccc(C[C@@H](C#N)NC(=O)C4CNC(C)(C)CO4)cc3)cc21` (stereo partly drawn): the IC50 turned out to be 785 nM in assay [1], 0.0547 µM in assay [2] and 360 nM in assay [3].

Regarding `Cn1c(=O)oc2ccc(-c3ccc(C[C@@H](C#N)NC(=O)[C@@H]4C[C@@H]5COC[C@@H]5N4)c(F)c3)cc21`, the IC50 came out at 41.2 nM in assay [1], 0.15 µM in assay [2] and 179 nM in assay [3].

With `N#Cc1ccc(-c2ccc(C[C@@H](C#N)NC(=O)[C@@H]3C[C@@H]4COC[C@@H]4N3)cc2)cc1`, the results for the IC50 in assay [1], in assay [2] and in assay [3] were 246 nM, 0.875 µM and 480 nM, respectively.
